Experimental data: paper PMC10518255, “A first-in-class pan-lysyl oxidase inhibitor impairs stromal remodeling and enhances gemcitabine response and survival in pancreatic cancer” (Nature Cancer, 2023)
“And” between values parts separate entries of the source, which are not always exact repeats. Equal values may be shown once.

How the values were obtained:
Hepatocyte stability = assay type: in vitro ADME; conditions: hepatocytes; In vitro (human)
[1] = system: Lysyl oxidase family activity in ear; experiment: Target engagement: lysyl oxidase family activity in ear after single 30 mg/kg oral dose (Fig. 2g); assay type: in vivo, rat; set-up: Lysyl oxidase family activity in the ear: unit not given here; conditions: rats; for Lysyl oxidase family activity in the ear: single 30 mg/kg oral, individual samples, 30 mg/kg
Protocol: Data are presented as mean ± s.d. Two-tailed P value determined by unpaired, nonparametric t-test with a Mann–Whitney U-test correction (comparison to PBS control). h, Lysyl oxidase family activity measured in freshly excised aorta determined by fluorometric activity assay n = 19 (PBS), 5 (4–120 h) biological independent samples. Data presented as mean ± s.d. Two-tailed P value determined by unpaired, nonparametric t-test with a Mann–Whitney U-test correction (comparison to PBS control).
To confirm that PXS-5505 inhibits lysyl oxidase family enzymatic activity in tissues, target engagement experiments were performed following a single oral dose (30 mg kg^−1) in rats. […] Lysyl oxidase family activity was measured in two tissues; aorta (core tissue) and ear (peripheral tissue).

Recombinant LOXL-1 = molecular target: T1, Recombinant LOXL-1 (Homo sapiens, UniProt Q08397); experiment: Lysyl oxidase enzymatic activity, fluorescence-based assay, IC50; assay type: biochemical
T1 sequence (Q08397 96-574): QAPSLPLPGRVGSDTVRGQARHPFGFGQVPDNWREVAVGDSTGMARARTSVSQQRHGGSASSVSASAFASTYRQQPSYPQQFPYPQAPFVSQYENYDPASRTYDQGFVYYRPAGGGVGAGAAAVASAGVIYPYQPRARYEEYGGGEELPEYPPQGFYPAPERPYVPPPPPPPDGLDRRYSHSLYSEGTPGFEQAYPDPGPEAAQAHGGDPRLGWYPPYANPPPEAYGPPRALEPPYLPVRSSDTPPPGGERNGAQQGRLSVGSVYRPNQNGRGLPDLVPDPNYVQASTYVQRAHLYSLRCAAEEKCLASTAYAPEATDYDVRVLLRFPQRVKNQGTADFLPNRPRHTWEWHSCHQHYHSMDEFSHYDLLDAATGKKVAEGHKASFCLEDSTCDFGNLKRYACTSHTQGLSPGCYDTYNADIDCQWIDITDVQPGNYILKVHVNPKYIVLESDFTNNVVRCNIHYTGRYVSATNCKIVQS
Source text: Data are presented as mean ± s.d. […] Data presented as mean ± s.d. […] Source data TEXT PRINTED IN THE PICTURE: (b) PXS-5505: Recombinant DAO IC50 (nM): >30,000; Recombinant SSAO/VAP1 IC50 (nM): >30,000; Recombinant MAO-A IC50 (nM): >30,000; Recombinant MAO-B IC50 (nM): >30,000 | (f) PXS-5505: Fibroblast LOX IC50 (nM): 4,930; Recombinant LOXL-1 IC50 (nM): 1,590; Recombinant LOXL-2 IC50 (nM): 570; Recombinant LOXL-3 IC50 (nM): 1,800; Recombinant LOXL-4 IC50 (nM): 190
In characterizing PXS-5505, the half-maximum inhibitory concentration (IC50) values for each of the lysyl oxidase family members were determined by measuring enzymatic activity using a fluorescence-based assay. […]

Cl.Cl.NC/C=C(\F)CS(=O)(=O)c1cccc2cccnc12.O [PXS-5505, (Z)-3-fluoro-4-(quinolin-8-ylsulfonyl)but-2-en-1-amine dihydrochloride monohydrate]
remaining at 1 h (Hepatocyte stability): 90%
recovery of lysyl oxidase family activity in the ear ([1]; single 30 mg kg−1 oral, over 120 h): approximately 50%
Lysyl oxidase family activity in the ear ([1]; 4 h): 45.365 and 48.796 and 39.3331 and 45.8641 and 44.4191
Lysyl oxidase family activity in the ear ([1]; 24 h): 63.1181 and 58.052 and 51.7601 and 46.8877 and 41.975
Lysyl oxidase family activity in the ear ([1]; 48 h): 53.5883 and 61.6934 and 50.7554 and 53.1219
Lysyl oxidase family activity in the ear ([1]; 120 h): 62.7632 and 56.3978 and 53.8738 and 91.7643
IC50 (Recombinant LOXL-1): 1590 nM
LOXL1 activity, IC50 determination curve (Recombinant LOXL-1; log(Concentration) -4.52288, replicates, 30 µM): -0.3767 and 0.3431 and 4.322
LOXL1 activity, IC50 determination curve (Recombinant LOXL-1; log(Concentration) -5, replicates, 10 µM): 5.837
LOXL1 activity, IC50 determination curve (Recombinant LOXL-1; log(Concentration) -5.47712, replicates, 3.333 µM): 31.2503 and 31.9336
LOXL1 activity, IC50 determination curve (Recombinant LOXL-1; log(Concentration) -5.95424, replicates, 1.111 µM): 60.6166 and 67.4565
LOXL1 activity, IC50 determination curve (Recombinant LOXL-1; log(Concentration) -6.43136, replicates, 0.3704 µM): 85.3221 and 90.5851
LOXL1 activity, IC50 determination curve (Recombinant LOXL-1; log(Concentration) -6.90849, replicates, 0.1235 µM): 93.09 and 98.6783
LOXL1 activity, IC50 determination curve (Recombinant LOXL-1; log(Concentration) -7.38561, replicates, 0.04115 µM): 99.6453 and 102.919
LOXL1 activity, IC50 determination curve (Recombinant LOXL-1; log(Concentration) -7.86273, replicates, 0.01372 µM): 100.176 and 100.944
LOXL1 activity, IC50 determination curve (Recombinant LOXL-1; log(Concentration) -8.33985, replicates, 0.004572 µM): 101.83 and 104.276
LOXL1 activity, IC50 determination curve (Recombinant LOXL-1; log(Concentration) -8.81697, replicates, 0.001524 µM): 107.666 and 104.748
LOXL1 activity, IC50 determination curve (Recombinant LOXL-1; log(Concentration) -9.29409, replicates, 0.000508 µM): 100.744 and 106.953
activity at 10 µM (Recombinant LOXL-1; read-out: LOXL1 activity, IC50 determination curve, log(Concentration) -5, replicates): 4.51%
activity at 3.333 µM (Recombinant LOXL-1; read-out: LOXL1 activity, IC50 determination curve, log(Concentration) -5.47712, replicates): 20.9%
activity at 1.111 µM (Recombinant LOXL-1; read-out: LOXL1 activity, IC50 determination curve, log(Concentration) -5.95424, replicates): 63.8%
activity at 0.3704 µM (Recombinant LOXL-1; read-out: LOXL1 activity, IC50 determination curve, log(Concentration) -6.43136, replicates): 85%
activity at 0.1235 µM (Recombinant LOXL-1; read-out: LOXL1 activity, IC50 determination curve, log(Concentration) -6.90849, replicates): 94.6%
activity at 0.04115 µM (Recombinant LOXL-1; read-out: LOXL1 activity, IC50 determination curve, log(Concentration) -7.38561, replicates): 99.8%
activity at 0.01372 µM (Recombinant LOXL-1; read-out: LOXL1 activity, IC50 determination curve, log(Concentration) -7.86273, replicates): 100%
activity at 0.004572 µM (Recombinant LOXL-1; read-out: LOXL1 activity, IC50 determination curve, log(Concentration) -8.33985, replicates): 101%
activity at 0.001524 µM (Recombinant LOXL-1; read-out: LOXL1 activity, IC50 determination curve, log(Concentration) -8.81697, replicates): 101%
activity at 0.000508 µM (Recombinant LOXL-1; read-out: LOXL1 activity, IC50 determination curve, log(Concentration) -9.29409, replicates): 102%
